Common to all, as to assay type: biochemical
The target in one test is T1, KDM7 (PHF8) (Homo sapiens, UniProt Q9UPP1).
T1 construct: KDM7 (PHF8); BRIC; 1-1322; Bac
The experiment in a line: Histone lysine demethylase AlphaLISA assay, KDM7. Conditions: read-out: PHF8 HDME Inhibition IC50. In short, it runs like this:
(§1)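 Steps: enzyme equilibrated 10 min in buffer; compounds in 3% DMSO solution added, 10 min; substrate mix added (peptide, 25 μM L-Asc, 10 μM α-KG), room temperature; acceptor beads, then streptavidin donor beads, dark incubations; plate read.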

The next test addresses T2, KDM3B (JMJD1B) (Homo sapiens, UniProt Q7LBC6).
T2 construct: 842-1761; host or cells: Bac (baculovirus system)
T2 sequence (Q7LBC6 842-1761): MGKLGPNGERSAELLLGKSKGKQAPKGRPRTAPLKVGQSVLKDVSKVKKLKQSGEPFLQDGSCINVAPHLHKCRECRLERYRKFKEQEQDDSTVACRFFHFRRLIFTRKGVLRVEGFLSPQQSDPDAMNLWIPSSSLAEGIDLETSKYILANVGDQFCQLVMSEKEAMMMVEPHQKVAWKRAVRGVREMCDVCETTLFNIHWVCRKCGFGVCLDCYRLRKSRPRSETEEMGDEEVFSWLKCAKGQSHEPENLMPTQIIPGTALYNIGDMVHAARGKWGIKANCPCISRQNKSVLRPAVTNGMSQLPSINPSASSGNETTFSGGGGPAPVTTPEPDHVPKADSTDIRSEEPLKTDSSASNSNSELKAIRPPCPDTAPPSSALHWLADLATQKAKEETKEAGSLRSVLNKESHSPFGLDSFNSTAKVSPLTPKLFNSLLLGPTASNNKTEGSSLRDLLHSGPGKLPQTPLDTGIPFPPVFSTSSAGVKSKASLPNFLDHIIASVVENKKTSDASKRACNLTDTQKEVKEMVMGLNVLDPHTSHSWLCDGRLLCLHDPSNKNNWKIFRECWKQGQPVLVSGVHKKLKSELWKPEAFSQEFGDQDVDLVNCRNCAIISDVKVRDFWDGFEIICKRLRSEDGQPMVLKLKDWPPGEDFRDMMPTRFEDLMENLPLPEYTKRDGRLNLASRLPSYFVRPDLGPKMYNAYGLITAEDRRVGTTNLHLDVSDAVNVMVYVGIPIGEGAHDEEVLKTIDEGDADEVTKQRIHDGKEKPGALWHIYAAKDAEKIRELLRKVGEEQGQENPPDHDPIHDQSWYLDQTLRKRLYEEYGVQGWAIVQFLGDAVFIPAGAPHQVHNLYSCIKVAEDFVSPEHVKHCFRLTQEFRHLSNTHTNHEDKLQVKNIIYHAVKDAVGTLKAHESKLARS
The experiment in a line: Histone lysine demethylase AlphaLISA assay, KDM3B. The conditions noted are these: read-out: KDM3B HDME Inhibition IC50. In a few lines:
as §1
For orientation: Alpha assays give light when donor and acceptor beads are brought close together.

Another test concerns the target T3, KDM5B (PLU-1) (Homo sapiens, UniProt Q9UGL1).
T3 sequence (Q9UGL1 1-809): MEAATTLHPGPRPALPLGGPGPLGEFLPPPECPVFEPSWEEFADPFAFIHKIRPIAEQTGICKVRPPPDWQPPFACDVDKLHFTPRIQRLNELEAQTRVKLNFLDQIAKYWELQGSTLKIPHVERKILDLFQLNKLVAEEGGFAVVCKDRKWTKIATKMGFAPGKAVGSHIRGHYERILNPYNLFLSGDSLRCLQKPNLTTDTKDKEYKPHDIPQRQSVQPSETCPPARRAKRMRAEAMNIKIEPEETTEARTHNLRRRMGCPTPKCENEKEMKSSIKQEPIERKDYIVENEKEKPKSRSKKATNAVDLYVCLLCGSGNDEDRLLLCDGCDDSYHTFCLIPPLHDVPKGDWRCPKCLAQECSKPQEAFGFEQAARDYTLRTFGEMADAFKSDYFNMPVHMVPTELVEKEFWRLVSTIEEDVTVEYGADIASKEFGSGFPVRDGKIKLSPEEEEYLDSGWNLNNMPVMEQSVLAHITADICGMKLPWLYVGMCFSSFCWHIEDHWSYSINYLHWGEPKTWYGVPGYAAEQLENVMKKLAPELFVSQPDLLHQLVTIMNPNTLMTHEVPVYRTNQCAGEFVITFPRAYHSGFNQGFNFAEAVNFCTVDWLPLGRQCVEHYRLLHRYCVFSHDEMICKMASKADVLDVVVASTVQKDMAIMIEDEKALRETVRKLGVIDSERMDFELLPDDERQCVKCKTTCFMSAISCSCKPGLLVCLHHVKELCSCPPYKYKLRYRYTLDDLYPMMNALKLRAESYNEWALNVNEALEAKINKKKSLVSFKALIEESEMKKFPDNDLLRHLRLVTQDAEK
The experiment in a line: Histone lysine demethylase AlphaLISA assay, KDM5B. Conditions: read-out: KDM5B HDME Inhibition IC50. In a few lines: as §1

T1 sequence (Q9UPP1 37-440 limits assumed): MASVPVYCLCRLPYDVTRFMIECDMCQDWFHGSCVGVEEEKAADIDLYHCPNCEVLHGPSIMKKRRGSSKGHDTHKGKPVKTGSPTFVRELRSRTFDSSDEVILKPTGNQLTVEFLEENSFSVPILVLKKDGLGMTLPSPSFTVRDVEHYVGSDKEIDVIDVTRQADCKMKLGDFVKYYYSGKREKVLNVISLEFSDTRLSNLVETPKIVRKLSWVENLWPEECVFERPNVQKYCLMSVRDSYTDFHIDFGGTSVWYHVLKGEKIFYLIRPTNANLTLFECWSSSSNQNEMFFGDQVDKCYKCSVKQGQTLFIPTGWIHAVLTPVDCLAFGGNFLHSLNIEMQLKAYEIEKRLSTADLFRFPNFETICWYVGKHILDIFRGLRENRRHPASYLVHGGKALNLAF

`CN(C)CCCCNCc1cc(CN)ccn1` [Compound 2, [2-({[4-(dimethylamino)butyl]-amino}methyl)pyridin-4-yl]methanamine]: the IC50 on KDM7 (PHF8), at KDM3B (JMJD1B) and at KDM5B (PLU-1) was more than 2500 nM throughout.
With `CN(C)CCNCc1ccnc(CNCCCN(C)Cc2ccccc2)c1` [Compound 18, benzyl[3-({[4-({[2-(dimethylamino)ethyl]-amino}methyl)pyridin-2-yl]methyl}-amino)propyl]-methylamine], the values for the IC50 on KDM7 (PHF8), on KDM3B (JMJD1B) and at KDM5B (PLU-1) were more than 2500 nM, more than 2500 nM and 250 to 2500 nM, respectively.
As to `COCCNCc1ccnc(CNCCCN(C)Cc2ccccc2)c1` [Compound 19, benzyl(3-{[(4-{[(2-methoxyethyl)amino]-methyl}pyridin-2-yl)methyl]amino}-propyl)methylamine], the figures for the IC50 at KDM7 (PHF8), on KDM3B (JMJD1B) and on KDM5B (PLU-1) were more than 2500 nM, more than 2500 nM and 250 to 2500 nM, respectively.
Turning to `COc1ccccc1CN1CCC(NC(=O)CNCc2cc(CNC3CC3)ccn2)CC1` [Compound 20, 2-[({4-[(cyclopropylamino)-methyl]pyridin-2-yl}methyl)amino]-N-{1-[(2-methoxyphenyl)methyl]-piperidin-4-yl}acetamide], the IC50 (commonly the concentration that inhibits the measured activity by half) is less than 250 nM at KDM7 (PHF8), more than 2500 nM at KDM3B (JMJD1B) and less than 250 nM at KDM5B (PLU-1).
Consider `CCN(CCN(C)C)C(=O)CN(Cc1cc(CNC(=O)C(F)(F)F)ccn1)C(=O)C(F)(F)F` [Compound 26, N-[(2-{[N-({[2-(dimethylamino)ethyl]-(ethyl)carbamoyl}-methyl)-2,2,2-trifluoroacetamido]-methyl}pyridin-4-yl)methyl]-2,2,2-trifIuoroacetamide], for which the IC50 at KDM5B (PLU-1) is more than 2500 nM.
As to `COC(=O)CNCc1cc(/C=N/C2CC2)ccn1` [Compound 59, methyl 2-[({4-[N-cyclopropyl-carboximidoyl]pyridin-2-yl}methyl)amino]-acetate], the IC50 on KDM7 (PHF8) was 250 to 2500 nM; on KDM3B (JMJD1B), more than 2500 nM; at KDM5B (PLU-1) it was less than 250 nM.
Consider `CCN(CC)CCCCNCc1cc(C2NCCCN2C)ccn1` (centres unmarked) [Compound 68, [4-(diethylamino)butyl]({[4-(1-methyl-1,3-diazinan-2-yl)pyridin-2-yl]methyl})amine], for which, at KDM5B (PLU-1), the IC50 was less than 250 nM.
`O=Cc1ccnc(CNCCCCN(Cc2ccccc2)C2CC2)c1` [Compound 109, 2-[({4-[benzyl-(cyclopropyl)amino]-butyl}amino)methyl]-pyridine-4-carbaldehyde]: the IC50 at KDM7 (PHF8) is more than 2500 nM; at KDM3B (JMJD1B) it was more than 2500 nM; at KDM5B (PLU-1), less than 250 nM.
For `O=Cc1ccnc(CNCC(=O)NC2CCN(Cc3ccccc3)C2)c1` (centres unmarked) [Compound 113, N-(1-benzylpyrrolidin-3-yl)-2-{[(4-formylpyridin-2-yl)methyl]amino}-acetamide], the IC50 is more than 2500 nM at KDM7 (PHF8), more than 2500 nM on KDM3B (JMJD1B) and less than 250 nM at KDM5B (PLU-1).

The record behind these values is patent publication US9650339B2, “Inhibitors of histone demethylases” (Gilead Sciences, Inc., priority 2013, dated 2017).
